Consider 25 compounds from patent US9505728B2, “Triazolone compounds and uses thereof” (INCEPTION 2, INC., priority 2012, dated 2016).

This test concerns the target T1, Human PPARα (Homo sapiens, UniProt Q07869).
T1 construct: host or cells: proprietary non-human mammalian cells
T1 sequence (Q07869 1-468): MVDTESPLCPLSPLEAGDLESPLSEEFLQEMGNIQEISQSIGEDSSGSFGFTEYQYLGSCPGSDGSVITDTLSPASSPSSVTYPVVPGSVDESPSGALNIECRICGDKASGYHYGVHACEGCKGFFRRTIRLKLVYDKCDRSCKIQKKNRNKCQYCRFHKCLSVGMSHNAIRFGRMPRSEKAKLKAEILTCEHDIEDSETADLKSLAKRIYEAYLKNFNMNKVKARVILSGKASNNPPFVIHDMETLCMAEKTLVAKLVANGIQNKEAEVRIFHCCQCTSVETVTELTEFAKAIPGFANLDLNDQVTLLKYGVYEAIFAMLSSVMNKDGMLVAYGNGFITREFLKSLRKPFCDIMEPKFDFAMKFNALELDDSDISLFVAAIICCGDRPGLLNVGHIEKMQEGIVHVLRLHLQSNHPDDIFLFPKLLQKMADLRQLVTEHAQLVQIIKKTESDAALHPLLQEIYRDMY
In words: Human PPARα Reporter Assay (luciferase). As to conditions: human PPARα reporter cells, overnight incubation, antagonism; read-out: Luciferase IC50. The test is classed as cell-based. How it is done: Human PPARα Reporter Assay
The screening of test compounds for agonist or antagonist activities against human PPARα receptors was performed using a commercial kit, Human PPARα Reporter Assay System (Indigo Biosciences, Cat. #IB00111).
This nuclear receptor assay system utilizes proprietary non-human mammalian cells engineered to provide constitutive, high-level expression of Human PPARα. Because these cells incorporate a PPARα-responsive luciferase reporter gene, quantifying expressed luciferase activity provides a sensitive surrogate measure of PPARα activity in the treated cells. The primary application of this reporter assay system is in the screening of test samples to quantify any functional activity, either agonist or antagonist, that they may exert against human PPARα.
Briefly, reporter cells are dispensed into wells of the assay plate and then immediately dosed with test compounds. Following an overnight incubation, the treatment media is discarded and Luciferase Detection Reagent (LDR) is added. The intensity of light emission from the ensuing luciferase reaction provides a sensitive measure that is directly proportional to the relative level of PPARα activation in the reporter cells.
(Reporter assays use an easily measured gene product as a stand-in for the process of interest.)

Molecules are shown by their SMILES.

For orientation: IC50 means the concentration at which inhibition is half-maximal. In the case of `CCSc1ccc(-c2ccc(CCCc3nn(Cc4ccc(C(C)(C)C)cc4)c(=O)n3CC)cc2)cc1CC(=O)O` [Example 61, 2-(5-{4-[3-(1-{[4-(tert-Butyl)phenyl]methyl}-4-ethyl-5-oxo(1,2,4-triazolin-3-yl))propyl]phenyl}-2-ethylthiophenyl)acetic acid], the IC50 is 20 nM. Under `CCn1c(CCCc2ccc(-c3ccc4[nH]cc(C(=O)O)c4c3)cc2)nn(Cc2ccc(C(C)(C)C)cc2)c1=O` [Example 70, 5-(4-(3-(1-(4-(tert-Butyl)benzyl)-4-ethyl-5-oxo-4,5-dihydro-1H-1,2,4-triazol-3-yl)propyl)phenyl)-1H-indole-3-carboxylic acid] stands 270 nM. Consider `CCNC(=O)Nc1cccc(-c2ccc(CCCc3nn(Cc4ccc(C(C)(C)C)cc4)c(=O)n3CC)cc2)n1` [Example 171, 1-(6-(4-(3-(1-(4-(tert-Butyl)benzyl)-4-ethyl-5-oxo-4,5-dihydro-1H-1,2,4-triazol-3-yl)propyl)phenyl)pyridin-2-yl)-3-ethylurea], for which the IC50 came to 816 nM.

With `CCn1c(CCCc2ccc(-c3cc(CC(=O)O)ccc3F)cc2)nn(Cc2ccc(C(C)(C)C)cc2)c1=O` [Example 19, 2-(4′-(3-(1-(4-(tert-Butyl)benzyl)-4-ethyl-5-oxo-4,5-dihydro-1H-1,2,4-triazol-3-yl)propyl)-6-fluoro-[1,1′-biphenyl]-3-yl)acetic acid], the IC50 was 796 nM. Under `CCn1c(CCCc2ccc(-c3ccc(C(F)(F)F)c(N)n3)cc2)nn(Cc2ccc(C(C)(C)C)cc2)c1=O` [Example 161, 3-(3-{4-[6-Amino-5-(trifluoromethyl)(2-pyridyl)]phenyl}propyl)-1-{[4-(tert-butyl)phenyl]methyl}-4-ethyl-1,2,4-triazolin-5-one] stands 638 nM; under `CCn1c(CCCc2ccc(-c3ccc(NS(=O)(=O)c4ccccc4)c(C)n3)cc2)nn(Cc2ccc(C(C)(C)C)cc2)c1=O` [Example 124, 1-{[4-(tert-Butyl)phenyl]methyl}-4-ethyl-3-[3-(4-{6-methyl-5-[(phenylsulfonyl)amino](2-pyridyl)}phenyl)propyl]-1,2,4-triazolin-5-one], 290 nM. Take `CCn1c(CCCc2ccc(-c3cccc(C(C)C(=O)O)c3)cc2)nn(Cc2ccc(C(C)(C)C)cc2)c1=O` (stereo not shown) [Example 44, 2-(3-{4-[3-(1-{[4-(tert-Butyl)phenyl]methyl}-4-ethyl-5-oxo-1,2,4-triazolin-3-yl)propyl]phenyl}phenyl)propanoic acid]: the IC50 was 652 nM. Under `CCn1c(CCCc2ccc(-c3ccc(OC)c(CNS(=O)(=O)c4ccccc4)c3)cc2)nn(Cc2ccc(C(C)(C)C)cc2)c1=O` [Example 185, 1-{[4-(tert-Butyl)phenyl]methyl}-4-ethyl-3-{3-[4-(4-methoxy-3-{[(phenylsulfonyl)amino]methyl}phenyl)phenyl]propyl}-1,2,4-triazolin-5-one] stands 423 nM.

Regarding `CCCn1c(CCCc2ccc(-c3ccc(OC)c(CC(=O)O)c3)cc2)nn(Cc2ccc(C(C)(C)C)cc2)c1=O` [Example 80, 2-(4′-(3-(1-(4-(tert-Butyl)benzyl)-5-oxo-4-propyl-4,5-dihydro-1H-1,2,4-triazol-3-yl)propyl)-4-methoxy-[1,1′-biphenyl]-3-yl)acetic acid], the half-inhibitory concentration (IC50) was found to be 22 nM. Take `CCn1c(CCCc2ccc(-c3ccc(C)c(C(=O)O)n3)cc2)nn(Cc2ccc(C(C)(C)C)cc2)c1=O` [Example 165, 6-(4-(3-(1-(4-(tert-Butyl)benzyl)-4-ethyl-5-oxo-4,5-dihydro-1H-1,2,4-triazol-3-yl)propyl)phenyl)-3-methylpicolinic acid]: the 50% inhibitory concentration (IC50) worked out at 202 nM.

For `CCn1c(CCCc2ccc(-c3cc(N)ccn3)cc2)nn(Cc2ccc(C(C)(C)C)cc2)c1=O` [Example 11, 3-(3-(4-(4-Aminopyridin-2-yl)phenyl)propyl)-1-(4-(tert-butyl)benzyl)-4-ethyl-1H-1,2,4-triazol-5(4H)-one], the half-inhibitory concentration (IC50) turned out to be 157 nM. The result for `CCn1c(CCCc2ccc(-c3ccc(CC(=O)O)nc3)cc2)nn(Cc2ccc(C(C)(C)C)cc2)c1=O` [Example 43, 2-(5-{4-[3-(1-{[4-(tert-Butyl)phenyl]methyl}-4-ethyl-5-oxo-1,2,4-triazolin-3-yl)propyl]phenyl}-2-pyridyl)acetic acid] reads 898 nM; that for `CCn1c(CCCc2ccc(-c3ccc(OC)c(NS(=O)(=O)C4CCCCC4)n3)cc2)nn(Cc2ccc(C(C)(C)C)cc2)c1=O` [Example 192, 1-{[4-(tert-Butyl)phenyl]methyl}-4-ethyl-3-[3-(4-{6-[(cyclohexylsulfonyl)amino]-5-methoxy(2-pyridyl)}phenyl)propyl]-1,2,4-triazolin-5-one], 12 nM; that for `CCn1c(CCCc2ccc(-c3ccc(OC)c([C@H](C)C(=O)O)c3)cc2)nn(Cc2ccc(C(C)(C)C)cc2)c1=O` [Example 142, (S)-2-(4′-(3-(1-(4-(tert-Butyl)benzyl)-4-ethyl-5-oxo-4,5-dihydro-1H-1,2,4-triazol-3-yl)propyl)-4-methoxy-[1,1′-biphenyl]-3-yl)propanoic acid], 272 nM. The result for `CCn1c(CCCc2ccc(-c3cccc(CC(=O)O)c3F)cc2)nn(Cc2ccc(C(C)(C)C)cc2)c1=O` [Example 18, 2-(4′-(3-(1-(4-(tert-Butyl)benzyl)-4-ethyl-5-oxo-4,5-dihydro-1H-1,2,4-triazol-3-yl)propyl)-2-fluoro-[1,1′-biphenyl]-3-yl)acetic acid] reads 1420 nM.

Turning to `CCn1c(CCCc2ccc(-c3cccc(CCC(=O)O)c3)cc2)nn(Cc2ccc(C(C)(C)C)cc2)c1=O` [Example 36, 3-(4′-(3-(1-(4-(tert-Butyl)benzyl)-4-ethyl-5-oxo-4,5-dihydro-1H-1,2,4-triazol-3-yl)propyl)-[1,1′-biphenyl]-3-yl)propanoic acid], the IC50 was 2760 nM. Regarding `CCn1c(CCCc2ccc(-c3ccc(OC)c(CNC)c3)cc2)nn(Cc2ccc(C(C)(C)C)cc2)c1=O` [Example 180, 1-{[4-(tert-Butyl)phenyl]methyl}-4-ethyl-3-[3-(4-{4-methoxy-3-[(methylamino)methyl]phenyl}phenyl)propyl]-1,2,4-triazolin-5-one], the IC50 came out at 640 nM. In the case of `CCn1c(CCCc2ccc(-c3cccc(NS(=O)(=O)Cc4ccccc4)n3)cc2)nn(Cc2ccc(C(C)(C)C)cc2)c1=O` [Example 78, 1-{[4-(tert-Butyl)phenyl]methyl}-4-ethyl-3-{3-[4-(6-{[benzylsulfonyl]amino}(2-pyridyl))phenyl]propyl}-1,2,4-triazolin-5-one], the IC50 amounted to 37 nM. For `CCn1c(CCCc2ccc(-c3cncc(N)c3)cc2)nn(Cc2ccc(C(C)(C)C)cc2)c1=O` [Example 109, 3-(3-(4-(5-Aminopyridin-3-yl)phenyl)propyl)-1-(4-(tert-butyl)benzyl)-4-ethyl-1H-1,2,4-triazol-5(4H)-one], the IC50 turned out to be 590 nM. On to `CCn1c(CCCc2ccc(-c3cccc(NS(=O)(=O)C4CC4)n3)cc2)nn(Cc2ccc(C(C)(C)C)cc2)c1=O` [Example 42, 1-{[4-(tert-Butyl)phenyl]methyl}-3-[3-(4-{6-[(cyclopropylsulfonyl)amino](2-pyridyl)}phenyl)propyl]-4-ethyl-1,2,4-triazolin-5-one], for which the half-maximal inhibitory concentration (IC50) came to 488 nM. The result for `CCn1c(CCCc2ccc(-c3ccc(SC)c(CC(=O)O)c3)cc2)nn(Cc2ccc(C(C)(C)C)cc2)c1=O` [Example 64, 2-(5-{4-[3-(1-{[4-(tert-Butyl)phenyl]methyl}-4-ethyl-5-oxo(1,2,4-triazolin-3-yl))propyl]phenyl}-2-methylthiophenyl)acetic acid] reads 38 nM.

As to `CCn1c(CCCc2ccc(-c3ccc(C4(O)COC4)cn3)cc2)nn(Cc2ccc(C(C)(C)C)cc2)c1=O` [Example 197, 1-(4-(tert-Butyl)benzyl)-4-ethyl-3-(3-(4-(5-(3-hydroxyoxetan-3-yl)pyridine-2-yl)phenyl)propyl)-1H-1,2,4-triazol-5(4H)-one], the IC50 came out at 106 nM.

`CCn1c(CCCc2ccc(-c3ccc(OC)c(CNS(=O)(=O)Cc4ccccc4)c3)cc2)nn(Cc2ccc(C(C)(C)C)cc2)c1=O` [Example 188, 1-{[4-(tert-Butyl)phenyl]methyl}-4-ethyl-3-(3-{4-[4-methoxy-3-({[benzylsulfonyl]amino}methyl)phenyl]phenyl}propyl)-1,2,4-triazolin-5-one]: the half-inhibitory concentration (IC50) is 430 nM. Regarding `CCn1c(CCCc2ccc(-c3cccc(N)n3)cc2)nn(Cc2ccc(C(C)(C)C)cc2)c1=O` [Example 3, 3-(3-(4-(6-Aminopyridin-2-yl)phenyl)propyl)-1-(4-(tert-butyl)benzyl)-4-ethyl-1H-1,2,4-triazol-5(4H)-one], the IC50 was 271 nM. Under `CCn1c(CCCc2ccc(-c3ccc(OC)c(N)n3)cc2)nn(Cc2ccc(C(C)(C)C)cc2)c1=O` [Example 58, 3-{3-[4-(6-Amino-5-methoxy(2-pyridyl))phenyl]propyl}-1-{[4-(tert-butyl)phenyl]methyl}-4-ethyl-1,2,4-triazolin-5-one] stands 71 nM.
